Assay [1] relates to human cells, Her2 expression AlphaScreen; CTG viability. The experiment in a line: inhibitors of Her2 kinase expression, dose response, cell-based, AlphaScreen, CellTiter-Glo viability (AID 742). Conditions: viability, CellTiter-Glo. (In general: In Alpha technology, singlet oxygen from a donor bead excites a nearby acceptor bead.)
Experiment in assay [2]: as above
The following applies: human cells, Her2 expression AlphaScreen; CTG viability; at 9.62 µM (top of the series).

Activity calls are given as the source filed them. The rule behind the calls is not given here.

Consider `CCN(CC)c1ccc(-c2nn3c(-c4n[nH]c5c4CCC5)nnc3s2)cc1`, for which the 50% effective concentration (EC50) in assay [1] is > 9.62 µM. Also, the Her2 inhibition in assay [2] was -1.69% (inactive).

`CC(C)NCC(O)Cn1c2c(c3ccccc31)CCc1c-2cnn1-c1ccccc1` (stereo unspecified): the EC50 in assay [1] is > 9.62 µM. For the same molecule, the Her2 inhibition in assay [2] is 11.7% (inactive).

`C=C(C)Cn1c(-c2ccc(OC)cc2)nc2ccccc21`: the EC50 in assay [1] is > 9.62 µM. Also, the Her2 inhibition in assay [2] is -19.2% (inactive).

Regarding `CC(O)CCc1nc2ccc(C(=O)O)cc2[nH]1` (stereo unspecified), the 50% effective concentration (EC50) in assay [1] was > 9.62 µM. In addition, the Her2 inhibition in assay [2] was -23.7% (inactive).

Take `CCOC(=O)Cc1csc(NC(=O)COc2ccc(OC)cc2)n1`: the EC50 in assay [1] was > 9.62 µM. Further, the Her2 inhibition in assay [2] is -22.7% (inactive).

`Clc1ccc(COC(Cn2ccnc2)c2ccc(Cl)cc2Cl)cc1` (stereo unspecified): in assay [1], the concentration giving a half-maximal response (EC50) is > 9.62 µM. In addition, in assay [2], the Her2 inhibition is 1.73% (inactive).

Regarding `Cc1cc(NC(=O)CNC(=O)C2CCCCC2)no1`, the concentration giving a half-maximal response (EC50) in assay [1] was > 9.62 µM. The Her2 inhibition in assay [2] is 12.1% (inactive).

Turning to `COc1cc(NS(=O)(=O)c2ccc(C)cc2)c2ncccc2c1`, in assay [1], the EC50 is > 9.62 µM. Besides, the Her2 inhibition in assay [2] is 18.5% (inactive).

For the molecule `CCCCCCCCNC(C)C(O)c1ccc(SC(C)C)cc1` (stereo unspecified), the 50% effective concentration (EC50) in assay [1] was > 9.62 µM. For the same molecule, the Her2 inhibition in assay [2] is -16.3% (inactive).

Consider `C1CCC(C(CC2CCCCN2)C2CCCCC2)CC1` (stereo unspecified), for which the EC50 in assay [1] was > 9.62 µM. For the same molecule, the Her2 inhibition in assay [2] was -33.2% (inactive).

Consider `Cc1ccc(S(=O)(=O)Nc2cccc3ncccc23)s1`, for which, in assay [1], the EC50 is > 9.62 µM. In assay [2], the Her2 inhibition is 14.8% (inactive).

`O=S(=O)(c1ccc(F)cc1)N(CCO)CC(O)Cn1c2ccccc2c2ccccc21` (stereo unspecified): the EC50 in assay [1] was > 9.62 µM. In addition, the Her2 inhibition in assay [2] is -33.6% (inactive).

For `CCOC(=O)c1c(NC(=O)CSc2n[nH]c(N)n2)sc(CC)c1C`, in assay [1], the 50% effective concentration (EC50) was > 9.62 µM. The Her2 inhibition in assay [2] was -10.4% (inactive).

In the case of `Nc1nc(-c2cccs2)c(NC(=O)c2ccccc2)s1`, the EC50 in assay [1] is > 9.62 µM. For the same molecule, in assay [2], the Her2 inhibition is -8.18% (inactive).

As for `C=C(C)COc1ccc(-c2n[nH]c(C)c2-c2ccccc2OC)c(O)c1`, in assay [1], the EC50 was > 9.62 µM. Also, in assay [2], the Her2 inhibition was 4.56% (inactive).

In the case of `Cn1c(Cl)cnc1C1CC(=O)c2cc(Cl)ccc2O1` (stereo unspecified), the EC50 in assay [1] is > 9.62 µM. Also, the Her2 inhibition in assay [2] is 15.6% (inactive).

Take `OC(CN1CCN(c2cccc(C(F)(F)F)c2)CC1)c1c[nH]c2ccccc12` (stereo unspecified): the 50% effective concentration (EC50) in assay [1] is > 9.62 µM. The Her2 inhibition in assay [2] is 4.59% (inactive).

Take `CCc1nc(N)c(C#N)c(-c2cccnc2)c1C`: the concentration for a half-maximal effect (EC50) in assay [1] is > 9.62 µM. Moreover, the Her2 inhibition in assay [2] was 2.53% (inactive).

With `C=CCn1c(SCc2nc3ccccc3c(=O)[nH]2)nnc1-c1cc2cc(Cl)ccc2o1`, the concentration giving a half-maximal response (EC50) in assay [1] was > 9.62 µM. In addition, the Her2 inhibition in assay [2] was 5.79% (inactive).

On to `CCc1ccc2oc(-c3cc(N=Cc4cccc(OC)c4O)ccc3O)nc2c1`, for which the EC50 in assay [1] is > 9.62 µM. In assay [2], the Her2 inhibition is 20.2% (inactive).

In the case of `O=C1CC(Sc2nnnn2C2CCCCC2)C(=O)N1c1ccccc1` (stereo unspecified), in assay [1], the EC50 was > 9.62 µM. Besides, the Her2 inhibition in assay [2] was -12.8% (inactive).

As for `Clc1cccc(-c2nnc(-c3ccccc3)o2)c1`, in assay [1], the EC50 is < 0.024 µM. Besides, the Her2 inhibition in assay [2] is 34.8% (inactive).

Consider `O=C(Nc1ccccc1NC(=O)NC1CCCCC1)NC1CCCCC1`, for which the EC50 in assay [1] is > 9.62 µM. For the same molecule, the Her2 inhibition in assay [2] was -1.72% (inactive).

Take `O=C1C2=C(SCCS2)C(=O)N1CCCO`: the EC50 in assay [1] is > 9.62 µM. In addition, the Her2 inhibition in assay [2] is -25% (inactive).

On to `CCCCC(CC)Cn1c2nc3ccccc3nc2c2c(=N)oc(C)nc21` (stereo unspecified), for which the concentration giving a half-maximal response (EC50) in assay [1] is > 9.62 µM. In addition, the Her2 inhibition in assay [2] is -5.07% (inactive).

As to `O=S(=O)(CCN1CCN(C(c2ccccc2)c2ccccc2)CC1)C(F)(F)F`, the EC50 in assay [1] is > 9.62 µM. Also, the Her2 inhibition in assay [2] was -1.03% (inactive).

Regarding `c1cnc(-c2nnc3n2CCCCC3)cn1`, the half-maximal effective concentration (EC50) in assay [1] is > 9.62 µM. Also, in assay [2], the Her2 inhibition was 5.42% (inactive).

As for `c1ccc(-n2c(-c3ccncc3)nnc2N2CCOCC2)cc1`, the EC50 in assay [1] was > 9.62 µM. Further, the Her2 inhibition in assay [2] is -8.89% (inactive).

As to `CC(C)COC(=O)N1CC(O)CC1C(=O)O` (stereo unspecified), the EC50 in assay [1] is > 9.62 µM. Moreover, in assay [2], the Her2 inhibition was 7.84% (inactive).

In the case of `Nc1nc2n(n1)C(c1cccs1)CC(c1ccc(Br)cc1)N2` (stereo unspecified), in assay [1], the half-maximal effective concentration (EC50) is > 9.62 µM. Also, the Her2 inhibition in assay [2] was -10.7% (inactive).

Take `CCN(CC)C(=O)c1csc(Nc2ccc(C)cc2)n1`: the 50% effective concentration (EC50) in assay [1] was > 9.62 µM. Moreover, the Her2 inhibition in assay [2] was -12.9% (inactive).

Consider `CCN(CC)c1ccc2c(c1)oc(=O)c1c(Cl)cc(=O)oc12`, for which the EC50 in assay [1] was > 9.62 µM. In addition, the Her2 inhibition in assay [2] was -20.7% (inactive).

On to `COc1ccc(/C=C/C(O)=C2/C(=O)N(C)C3(C)CC2c2ccccc2O3)cc1` (stereo unspecified), for which the concentration giving a half-maximal response (EC50) in assay [1] was > 9.62 µM. In addition, in assay [2], the Her2 inhibition was 23.7% (inactive).

Regarding `O=C(Cc1cscn1)c1ccc(O)cc1O`, in assay [1], the concentration giving a half-maximal response (EC50) is > 9.62 µM. For the same molecule, the Her2 inhibition in assay [2] is 3.58% (inactive).

For the molecule `CCN(C(=O)COC(=O)c1cc(C)n(-c2ccc(F)cc2)c1C)C1CCS(=O)(=O)C1` (stereo unspecified), the EC50 in assay [1] was > 9.62 µM. For the same molecule, in assay [2], the Her2 inhibition was -2.5% (inactive).

For the molecule `O=C(Oc1ccc2c(c1)OCO2)c1cc2c(s1)CCC2`, the 50% effective concentration (EC50) in assay [1] is > 9.62 µM. Besides, the Her2 inhibition in assay [2] is 41.1% (inactive).

For the molecule `CCOC(=O)C1C(c2ccccc2Cl)NC(=O)N(C)C1(O)C(F)(F)F` (stereo unspecified), in assay [1], the EC50 is > 9.62 µM. Further, the Her2 inhibition in assay [2] is -10.7% (inactive).

For `Clc1ccc(COC(Cn2ccnc2)c2ccc(Cl)cc2Cl)c(Cl)c1` (stereo unspecified), the half-maximal effective concentration (EC50) in assay [1] is > 9.62 µM. Also, in assay [2], the Her2 inhibition is -0.43% (inactive).

As to `CCSC1(SCC)N=C(N)C2(C#N)C(c3ccc(OC)c(OC)c3OC)C12C#N` (stereo unspecified), the half-maximal effective concentration (EC50) in assay [1] was > 9.62 µM. In addition, the Her2 inhibition in assay [2] is 6.24% (inactive).

For the molecule `CS(=O)c1nc(-c2ccc(Br)cc2)cc(-c2ccccc2)c1C#N` (stereo unspecified), in assay [1], the concentration for a half-maximal effect (EC50) was > 9.62 µM. Also, the Her2 inhibition in assay [2] was 34% (inactive).

`Cc1cc(-c2nnc3n2N=C(c2ccc(-c4ccccc4)cc2)CS3)n[nH]1`: the EC50 in assay [1] is > 9.62 µM. For the same molecule, the Her2 inhibition in assay [2] was -21.4% (inactive).

Turning to `CC(C)C(=O)N(Cc1cc2ccccc2[nH]c1=O)C(C)(C)C`, in assay [1], the EC50 was > 9.62 µM. In addition, the Her2 inhibition in assay [2] was -2.53% (inactive).

Turning to `N#CCSc1nc2cc(C(=O)N3CCC(C(N)=O)CC3)ccc2c2nc3ccccc3n12`, the concentration for a half-maximal effect (EC50) in assay [1] was > 9.62 µM. In assay [2], the Her2 inhibition is 5.14% (inactive).

Consider `O=C(NCCCc1ccccc1)c1ccncc1`, for which the EC50 in assay [1] was > 9.62 µM. In addition, the Her2 inhibition in assay [2] was -8.4% (inactive).

Consider `CCCn1c(SCC(=O)Nc2cccc(C)n2)nnc1-c1ccco1`, for which the EC50 in assay [1] is > 9.62 µM. In addition, in assay [2], the Her2 inhibition was -2.69% (inactive).

On to `CC(=N\O)/C(CN(C)C)=N/O`, for which the EC50 in assay [1] was > 9.62 µM. In addition, in assay [2], the Her2 inhibition was -15.9% (inactive).

Consider `CCOc1ccccc1NC(=O)Cn1nnc(-c2ccc(OCC)c(OCC)c2)n1`, for which the 50% effective concentration (EC50) in assay [1] was > 9.62 µM. In addition, the Her2 inhibition in assay [2] is -13.9% (inactive).

For the molecule `CC(=O)Nc1cc(OC(C)=O)c2nonc2c1OC(C)=O`, the concentration for a half-maximal effect (EC50) in assay [1] was > 9.62 µM. Moreover, in assay [2], the Her2 inhibition was 22.3% (inactive).

Broadly, the EC50 is the concentration needed to bring the measured effect to its halfway point. A low value points to an effect from little substance.

These data come from PubChem BioAssay AID742 (SRMLSC, 2007).
